The supplement of paper PMC10307832

Legend:
Experiment in all cases: relative viability (nuclei count vs DMSO), 5 days (fraction); higher = more cells survive
[1] = compound: CC1=NN=C(O1)C2=NN=C(C=C2)N3CCC(CC3)OC4=C(C=CC(=C4)F)Cl + Nc1nc2[nH]cc(CCc3ccc(C(=O)N[C@@H](CCC(=O)O)C(=O)O)cc3)c2c(=O)[nH]1 [Pemetrexed] (partner 0.2 µM)
Summary of the method: (§1)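 A single step with final 0.05% Triton X-100, 1% formaldehyde and 1 ug/ml Hoechst fixed the cells and stained nuclei 5 days after treatment. Lung cancer cell lines in 1536-well plates had been treated by pin tool the day after seeding with one drug alone or a fixed anchor-drug dose plus five library-drug doses (not always all listed) in √10 steps, and nuclei were counted on 4× images. Relative viability is the ratio of nuclei in treated wells to nuclei in vehicle wells, taken as the median of duplicate plates.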

[2] = compound: CC1=NN=C(O1)C2=NN=C(C=C2)N3CCC(CC3)OC4=C(C=CC(=C4)F)Cl + O=C(c1cc(Cc2n[nH]c(=O)c3ccccc23)ccc1F)N1CCN(C(=O)C2CC2)CC1 [Olaparib] (partner 8 µM)
Summary of the method: as §1

Tosedostat + Linsitinib = compound: CC(C)C[C@@H](C(=O)N[C@H](C(=O)OC1CCCC1)c1ccccc1)[C@H](O)C(=O)NO [Tosedostat] + C[C@]1(O)C[C@@H](c2nc(-c3ccc4ccc(-c5ccccc5)nc4c3)c3c(N)nccn32)C1 [Linsitinib] (partner 1 µM)
Summary of the method: as §1

[3] = compound: CC1=NN=C(O1)C2=NN=C(C=C2)N3CCC(CC3)OC4=C(C=CC(=C4)F)Cl + C[C@@H](Oc1cc(-c2cnn(C3CCNCC3)c2)cnc1N)c1c(Cl)ccc(F)c1Cl [Crizotinib] (partner 1 µM)
Summary of the method: as §1

Cell Line	relative viability ([1]; first compound 0.253 µM)	relative viability ([1]; first compound 0.8 µM)	relative viability ([1]; first compound 2.53 µM)	relative viability ([1]; first compound 8 µM)	relative viability ([2]; first compound 0.253 µM)	relative viability ([2]; first compound 0.8 µM)	relative viability ([2]; first compound 2.53 µM)	relative viability ([2]; first compound 8 µM)	relative viability (Tosedostat + Linsitinib; first compound 0.02 µM)	relative viability (Tosedostat + Linsitinib; first compound 0.06325 µM)	relative viability (Tosedostat + Linsitinib; first compound 0.2 µM)	relative viability (Tosedostat + Linsitinib; first compound 0.6325 µM)	relative viability (Tosedostat + Linsitinib; first compound 2 µM)	relative viability ([3]; first compound 0.253 µM)	relative viability ([3]; first compound 2.53 µM)	relative viability ([3]; first compound 8 µM)	relative viability ([3]; first compound 0.8 µM)
HOP-62	0.315	0.318	0.231	0.17	0.388	0.116	0.192	0.279	1.07	0.977	0.849	0.693	0.712	0.71	0.784	0.575	
HARA	0.245	0.26	0.239	0.231	0.331	0.244	0.317	0.256	0.915	0.8	0.876	0.969	0.857	0.747	0.271	0.294	0.327
SW 1573	0.819	0.881	0.828	0.534	0.524	0.519	0.426	0.412	0.828	0.973	0.826	0.841	0.551	0.777	0.795	0.664	0.827
NCI-H1993	0.533	0.499	0.566	0.541	0.894	0.758	0.855	0.856	0.669	0.698	0.742	0.703	0.629	0.779	0.794	0.993	0.806
HCC-78	0.888	0.879	0.872	0.853	0.454	0.384	0.387	0.456	0.397	0.608	0.429	0.458	0.573	0.294	0.288	0.311	0.297
IA-LM					0.114	0.12	0.131	0.121	0.688	0.596	0.463	0.445	0.474	0.415	0.288	0.34	0.266
NCI-H647	0.11	0.158	0.13	0.111	0.232	0.157	0.173	0.0657	1.07	1.2	1.01	1.12	1.24	0.664	0.726	0.528	0.691
NCI-H1793	0.843	0.835	0.977	0.79	0.761	0.74	0.762	0.738	0.678	0.984	0.711	0.641	0.873				
NCI-H1650	0.317	0.349	0.33	0.343	0.516	0.645	0.642	0.597							0.806	0.803	0.748
NCI-H1299					0.741	0.722	0.717	0.664	1.13	0.878	0.984	0.878	0.839	0.785	0.756	0.689	0.711
NCI-H727					0.68	0.7	0.656	0.665	0.264	0.266	0.272	0.168	0.322	0.725	0.672	0.683	0.901
ChaGo-K-1	0.245	0.265	0.248	0.266	0.298	0.255	0.354	0.28						0.76	0.721	0.694	0.669
NCI-H522	1.02	0.947	1.14	0.959	0.694	0.566	0.664	0.686									
NCI-H1703					0.341	0.438	0.448	0.609	0.56	0.628	0.553	0.556	0.473	0.728	0.764	0.611	0.661
NCI-H1648	0.593	0.625	0.647	0.685	0.459	0.574	0.406	0.618									
NCI-H2342	0.646	0.663	0.701	0.614	0.305	0.309	0.369	0.363									
SW 900		0.444	0.486	0.449		0.801	0.776	0.802									
NCI-H1395	0.69	0.668	0.831	0.812	0.482	0.539	0.445	0.448	0.993	0.944	1.03	0.821	0.782				
A549					0.235	0.0638	0.409	0.163	0.663	0.621	0.562	0.532	0.608	0.461	0.316	0.319	0.383
NCI-H2170	0.241	0.218	0.242	0.256	0.303	0.248	0.342	0.256						0.553	0.638	0.449	0.573
ABC-1					0.664	0.506	0.488	0.638	0.95	0.868	0.854	0.773	0.626	0.686	0.426	0.436	0.615
